US9125903B2, “Composition useful for the treatment of lipid metabolism disorders” (SIGMA-TAU INDUSTRIE FARMACEUTICHE RIUNITE, S.P.A., priority 2011, dated 2015)

Experiments:
Format in all cases: in vivo
[1] = tested on: male CD1 mice on high-cholesterol diet; test: Plasma total cholesterol levels in male CD1 mice on high-cholesterol diet; parameters: % Reduction total cholesterol: concentration or dose not given beside the values; settings: for % Reduction total cholesterol: VS Cont. (high-cholesterol diet control, group 1); for Total-cholesterol (mg/dL) Mean values ± S.E.: plasma, oral twice a day for 17 days and one time on day 18, blood 8 h from last treatment, post-absorptive, monacolin K 2, fish oil 200, hexacosanol 25, resveratrol 5, Coenzyme Q10 50, vitamin B6 0.3, vitamin B12 0.25, L-carnitine 20 mg/kg
Method: (§1) Male CD 1 mice on a high-cholesterol diet (DP/104, Altromin-Rieper) for about 25 days were used. An acclimatization period of seven days was allowed before the start of the high-cholesterol diet.
(§2) Mice were housed inside cages with stainless steel cover-feed and sterilized and dust-free bedding cobs. Animals were housed under a light-dark cycle, keeping temperature and humidity constant. Parameters of the animal rooms are assessed as follows: 22±2° C. temperature, 55±10% relative humidity, about 15-20 filtered air changes/hour and 12 hours circadian cycle of artificial light (7 a.m., 7 p.m.). The environmental conditions were monitored.
(§3) Mice were divided into groups (10 mice per group) and treated orally (1 mL) twice daily with the compounds of the invention or their combinations at the doses reported in the following:
(§4) monacolin K 2 mg/kg (dissolved in water);
(§5) fish oil 200 mg/kg (dissolved in ethanol);
(§6) Hexacosanol 25 mg/kg (dissolved in ethanol);
(§7) resveratrol 5 mg/kg (dissolved in ethanol);
(§8) Coenzyme Q10 50 mg/kg (dissolved in water);
(§9) Vitamin B6 0.3 mg/kg (dissolved in water);
(§10) Vitamin B12 0.25 mg/kg (dissolved in water);
(§11) L-carnitine 20 mg/kg (dissolved in water).
(§12) At the start of treatment, the body weight of the animals was checked and monitoring of the animals' consumption of water and feed was scheduled.
(§13) On day 18, plasma cholesterol, triglyceride and HDL cholesterol were evaluated. […]

[2] = tested on: male CD1 mice on high-cholesterol diet; test: Plasma triglycerides levels in male CD1 mice on high-cholesterol diet; parameters: % Reduction triglycerides: concentration or dose not given beside the values; settings: for % Reduction triglycerides: VS Cont. (high-cholesterol diet control, group 1); for Triglycerides (mg/dL) Mean values ± S.E.: plasma, oral twice a day for 17 days and one time on day 18, blood 8 h from last treatment, post-absorptive, monacolin K 2, fish oil 200, hexacosanol 25, resveratrol 5, Coenzyme Q10 50, vitamin B6 0.3, vitamin B12 0.25, L-carnitine 20 mg/kg
Method: as §1, §2, §3, §4, §5, §6, §7, §8, §9, §10, §11, §12, §13

[3] = tested on: male CD1 mice on high-cholesterol diet; test: Plasma HDL-cholesterol levels in male CD1 mice on high-cholesterol diet; settings: for % of increase HDL-cholesterol: VS Cont. (high-cholesterol diet control, group 1); for HDL-cholesterol: plasma, mean values ± S.E., oral twice a day for 17 days and one time on day 18, blood 8 h from last treatment, post-absorptive, monacolin K 2, fish oil 200, hexacosanol 25, resveratrol 5, Coenzyme Q10 50, vitamin B6 0.3, vitamin B12 0.25, L-carnitine 20 mg/kg
Method: as §1, §2, §3, §4, §5, §6, §7, §8, §9, §10, §11, §12, §13

Row | Compound | % Reduction total cholesterol [1] [%] | Total-cholesterol (mg/dL) Mean values ± S.E. [1] [mg/dL] | % Reduction triglycerides [2] [%] | Triglycerides (mg/dL) Mean values ± S.E. [2] [mg/dL] | % of increase HDL-cholesterol [3] | HDL-cholesterol [3] [mg/dL]
1 | COC1=C(OC)C(=O)C(C/C=C(\C)CC/C=C(\C)CC/C=C(\C)CC/C=C(\C)CC/C=C(\C)CC/C=C(\C)CC/C=C(\C)CC/C=C(\C)CC/C=C(\C)CCC=C(C)C)=C(C)C1=O [Coenzyme Q10] | −3 | 355.8 ± 25.2 | −3 | 196.4 ± 22.1 | +4% | 23.9 ± 2.2
2 | C[N+](C)(C)C[C@H](O)CC(=O)[O-] [L-carnitine] | −12 | 322.8 ± 21.1 | −5 | 192.3 ± 16.4 | +21% | 27.8 ± 2.1
3 | Oc1ccc(/C=C/c2cc(O)cc(O)c2)cc1 [Resveratrol, trans-3,4′,5-trihydroxystilbene] | −4 | 352.1 ± 19.1 | −22 | 157.9 ± 12.4 | +3% | 23.7 ± 1.9
4 | CCCCCCCCCCCCCCCCCCCCCCCCCCO [Hexacosanol] | −16 | 307.2 ± 23.9 | −15 | 172.1 ± 12.3 | +15% | 26.4 ± 2.0
5 | cobalamin [Vitamin B12] | −4 | 352.1 ± 20.2 | −4 | 194.5 ± 17.4 | +5% | 24.3 ± 23
6 | Cc1ncc(CO)c(CO)c1O.Cl [Vitamin B6] | −5 | 348.5 ± 18.5 | −4 | 194.3 ± 16.7 | +5% | 24.1 ± 2.5
7 | CC[C@H](C)C(=O)O[C@H]1C[C@@H](C)C=C2C=C[C@H](C)[C@H](CC[C@@H]3C[C@@H](O)CC(=O)O3)[C@H]21 [Monacolin K, monacolin K] | −21 | 289.7 ± 21.0 | −8 | 186.3 ± 20.8 | +10% | 25.3 ± 2.1
